Data as given in paper PMC6934184, “Selective DNA-PKcs inhibition extends the therapeutic index of localized radiotherapy and chemotherapy” (The Journal of Clinical Investigation, 2019).

Target: T1, ABL1 M351T (Homo sapiens, UniProt P00519, M351T)
T1 construct: purchased Thermo Fisher Scientific (Life Technologies) SelectScreen
Test: SelectScreen LanthaScreen
Format: binding
Settings: read-out: % displacement
Method in brief: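 Percent values come from Thermo SelectScreen profiling of NU5455, combining activity and binding assays. CSF1R was run in Z'LYTE format at Km app ATP, and CAMK1 in Adapta format with ATP listed at 10.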

CN(C(=O)CN1CCOCC1)c1ccc2sc3c(-c4cccc5c(=O)cc(N6CC7CCC(C6)O7)oc45)cccc3c2c1 [NU5455]
inhibition at 1 µM: -1%
